What is called inhibition is the change of the read-out against control, counted positive when it falls.

The text below walks through data of patent US20070259856A1, “Method for Activating Trpv4 Channel Receptors by Agonists” (priority 2004, published 2007).

Assay [1] has as its system bovine articular cartilage explants. As to the kind of experiment: IL-1 induced collagen degradation (hydroxyproline) in bovine articular cartilage explants. The class given is cell-based. Here is the method:
IL-1 stimulates collagen degradation in bovine articular cartilage explants after extended (−2-3 weeks) exposure to IL-1. Collagen breakdown was evaluated by measuring the levels of hydroxyproline, a major component of hydrolyzed collagen fibrils, using a colorimetric assay that is understood in the art. Bovine articular cartilage was stimulated with IL-1 for 18 days, in the absence or presence of Formula Ib or Formula IId (both at 1 uM). Media was removed and replaced every 2-4 days with fresh IL-1 and compound through day 18. As has been shown previously, aggrecan degradation precedes collagen breakdown in IL-1-stimulated bovine cartilage explants. Once aggrecan depletion had been achieved by day 10, media were analyzed for collagen breakdown using the hydroxyproline assay.

Assay [2] shares this test system. As to the kind of experiment: IL-1 induced aggrecan degradation (GAG release, DMMB) in bovine articular cartilage explants. The class given is cell-based. An excerpt: Articular cartilage explants isolated from newborn calves at slaughter were placed in culture, and aggrecan degradation was initiated through stimulation with IL-1. Since aggrecan degradation in this model is believed to be mediated by aggrecanase, TRPV4 channel receptor agonists that are active in the chondrocyte-based aggrecanase peptide assay (Example 11) may also be effective inhibitors in the cartilage explant assay, presumably by blocking aggrecanase production in these tissues.
At the end of the culture period, conditioned media were assayed for glycosaminoglycan (GAG) levels by colorimetric (DMMB) assay as a measure of aggrecan degradation. In bovine explants, IL-1 induced a profound increase in the amount of GAG released into the media during the 3 day culture. When cartilage was treated with IL-1 in combination with Formula IIc, there was a concentration-dependent reduction in GAG release as shown in Table 5.

Assay [3] relates to wild type HEK293 cells. As to the kind of experiment: Intracellular calcium (FLIPR) in wild type HEK293 cells. Also on record: key to pEC50 wild type: IA = inactive. The note with it: for pEC50 wild type: intracellular calcium, mean ± s.e.mean, n = 3-5. The class given is cell-based. On the procedure: (§1) TRPV4 channel receptor cDNA was inserted into the expression vector pcDNA3.1 V5-His (Invitrogen, Carlsbad, Calif.). Wildtype HEK293 cells, or HEK293 cells transfected with the human TRPV4 channel receptor: pcDNA3.1 V5-His construct, or mock transfected cells, or bovine chondrocytes, were seeded into 96-well microtitre plates at 25,000 cells/well and cultured overnight. The cells were then incubated with 4 μM Fluo-3 (Fluo-3: Molecular Probes (Eugene, Oreg.)) for 2 hours at room temperature in the dark. Dye loaded cells were washed 4× with Tyrodes buffer: (NaCl, 145 mM; KCl, 2.5 mM; Hepes, 10 mM; Glucose, 10 mM; MgCl2, 1.2 mM; CaCl2, 1.5 mM), which also contained 0.2% BSA but not probenecid. Agonists and antagonists were also prepared in Tyrodes buffer. Cells were preincubated for 30 minutes with antagonist or buffer. Agonist addition and measurement of cytoplasmic calcium concentration was performed in the FLIPR (Smart, et al., (2000) Br. J. Pharmacol. 129, 227-230).
(Calcium flux is commonly read through the fluorescence of an indicator in the cells.)

The target of assay [4] is TRPV4 channel receptor (Rattus norvegicus, UniProt Q9ERZ8). As to the kind of experiment: Ca2+ influx in rat articular chondrocytes (FlexStation). The settings on record: rat chondrocytes.
Chain of TRPV4 channel receptor (Rattus norvegicus, UniProt Q9ERZ8) (Q9ERZ8 whole entry): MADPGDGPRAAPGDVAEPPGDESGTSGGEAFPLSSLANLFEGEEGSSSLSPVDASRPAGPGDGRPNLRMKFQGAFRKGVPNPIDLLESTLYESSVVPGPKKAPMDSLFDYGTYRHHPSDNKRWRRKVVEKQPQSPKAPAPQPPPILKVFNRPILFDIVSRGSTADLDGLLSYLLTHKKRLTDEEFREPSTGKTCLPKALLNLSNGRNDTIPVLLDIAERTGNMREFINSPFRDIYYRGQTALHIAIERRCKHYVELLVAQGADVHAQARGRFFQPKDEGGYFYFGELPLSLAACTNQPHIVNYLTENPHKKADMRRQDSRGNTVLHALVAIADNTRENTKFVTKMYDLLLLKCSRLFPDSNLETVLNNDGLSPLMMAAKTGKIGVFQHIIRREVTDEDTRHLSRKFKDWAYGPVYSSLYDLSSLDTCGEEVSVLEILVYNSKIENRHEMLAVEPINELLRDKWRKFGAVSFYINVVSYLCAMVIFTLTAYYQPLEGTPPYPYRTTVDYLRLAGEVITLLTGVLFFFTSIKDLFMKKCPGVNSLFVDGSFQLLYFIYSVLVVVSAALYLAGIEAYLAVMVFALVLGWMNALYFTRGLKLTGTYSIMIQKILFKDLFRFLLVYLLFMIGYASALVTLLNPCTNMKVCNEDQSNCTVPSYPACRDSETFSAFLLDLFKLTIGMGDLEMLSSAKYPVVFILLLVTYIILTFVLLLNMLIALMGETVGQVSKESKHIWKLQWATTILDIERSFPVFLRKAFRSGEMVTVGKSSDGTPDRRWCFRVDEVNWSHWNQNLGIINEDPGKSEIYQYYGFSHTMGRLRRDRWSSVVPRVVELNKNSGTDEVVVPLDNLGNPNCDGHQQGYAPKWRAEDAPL
Assay [5] has as its target T1, TRPV4 channel receptor (Homo sapiens, UniProt Q9HBA0). As to the kind of experiment: Ca2+ influx in human articular chondrocytes (FlexStation). The note with it: human chondrocytes.
The target in assay [6] is T2, TRPV4 channel receptor (Bos taurus, UniProt A0A8F4X677).
T2 construct: endogenous in cells; host or cells: bovine articular chondrocytes
T2 sequence (A0A8F4X677 1-871): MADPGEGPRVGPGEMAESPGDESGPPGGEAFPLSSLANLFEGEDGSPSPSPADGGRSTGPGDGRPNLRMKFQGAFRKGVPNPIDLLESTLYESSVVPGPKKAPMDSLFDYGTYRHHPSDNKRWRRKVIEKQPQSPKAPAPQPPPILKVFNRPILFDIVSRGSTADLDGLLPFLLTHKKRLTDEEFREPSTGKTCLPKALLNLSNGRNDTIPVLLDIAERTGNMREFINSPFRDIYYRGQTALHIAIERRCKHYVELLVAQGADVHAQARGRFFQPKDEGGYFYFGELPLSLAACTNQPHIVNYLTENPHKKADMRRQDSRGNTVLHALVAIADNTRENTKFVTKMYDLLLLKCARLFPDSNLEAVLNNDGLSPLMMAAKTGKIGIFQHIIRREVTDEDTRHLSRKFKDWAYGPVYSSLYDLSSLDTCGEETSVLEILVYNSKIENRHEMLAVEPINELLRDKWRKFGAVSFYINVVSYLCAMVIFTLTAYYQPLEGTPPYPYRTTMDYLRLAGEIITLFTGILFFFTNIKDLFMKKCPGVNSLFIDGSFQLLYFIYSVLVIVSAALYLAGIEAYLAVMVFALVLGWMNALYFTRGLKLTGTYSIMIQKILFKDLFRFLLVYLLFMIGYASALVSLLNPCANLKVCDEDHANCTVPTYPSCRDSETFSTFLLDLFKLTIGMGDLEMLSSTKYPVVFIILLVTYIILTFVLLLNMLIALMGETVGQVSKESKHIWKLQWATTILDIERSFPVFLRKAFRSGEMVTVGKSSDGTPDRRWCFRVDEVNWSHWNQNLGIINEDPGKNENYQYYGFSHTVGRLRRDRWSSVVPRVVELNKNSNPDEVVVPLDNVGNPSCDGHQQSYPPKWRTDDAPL
As to the kind of experiment: Ca2+ influx in bovine articular chondrocytes (FlexStation). Format: cell-based. The note with it: bovine chondrocytes.

The target of assay [7] is T1, TRPV4 channel receptor. As to the kind of experiment: Intracellular calcium (FLIPR, Fluo-3) in HEK293 cells transfected with human TRPV4 channel receptor. The class given is cell-based. Also on record: V5-His (from the vector's name only); expressed in transfected cells; host or cells: HEK293; key to pEC50 TRPVR4: IA = inactive. The settings on record: for pEC50 TRPVR4: intracellular calcium, mean ± s.e.mean, n = 3-5. Here is the method:
as §1

Assay [8] has as its target TRPVR1 (Homo sapiens, UniProt Q8NER1). The class given is cell-based. The settings on record: for pEC50 TRPVR1: intracellular calcium, mean ± s.e.mean, n = 3-5.
For assay [9], the system named is cells transfected with empty vector. As to the kind of experiment: Intracellular calcium (FLIPR) in HEK293 cells transfected with empty vector. The class given is cell-based. Also on record: key to pEC50 empty vector: IA = inactive. The note with it: for pEC50 empty vector: intracellular calcium, mean ± s.e.mean, n = 3-5. On the procedure: as §1

Chain of TRPVR1 (Q8NER1 whole entry): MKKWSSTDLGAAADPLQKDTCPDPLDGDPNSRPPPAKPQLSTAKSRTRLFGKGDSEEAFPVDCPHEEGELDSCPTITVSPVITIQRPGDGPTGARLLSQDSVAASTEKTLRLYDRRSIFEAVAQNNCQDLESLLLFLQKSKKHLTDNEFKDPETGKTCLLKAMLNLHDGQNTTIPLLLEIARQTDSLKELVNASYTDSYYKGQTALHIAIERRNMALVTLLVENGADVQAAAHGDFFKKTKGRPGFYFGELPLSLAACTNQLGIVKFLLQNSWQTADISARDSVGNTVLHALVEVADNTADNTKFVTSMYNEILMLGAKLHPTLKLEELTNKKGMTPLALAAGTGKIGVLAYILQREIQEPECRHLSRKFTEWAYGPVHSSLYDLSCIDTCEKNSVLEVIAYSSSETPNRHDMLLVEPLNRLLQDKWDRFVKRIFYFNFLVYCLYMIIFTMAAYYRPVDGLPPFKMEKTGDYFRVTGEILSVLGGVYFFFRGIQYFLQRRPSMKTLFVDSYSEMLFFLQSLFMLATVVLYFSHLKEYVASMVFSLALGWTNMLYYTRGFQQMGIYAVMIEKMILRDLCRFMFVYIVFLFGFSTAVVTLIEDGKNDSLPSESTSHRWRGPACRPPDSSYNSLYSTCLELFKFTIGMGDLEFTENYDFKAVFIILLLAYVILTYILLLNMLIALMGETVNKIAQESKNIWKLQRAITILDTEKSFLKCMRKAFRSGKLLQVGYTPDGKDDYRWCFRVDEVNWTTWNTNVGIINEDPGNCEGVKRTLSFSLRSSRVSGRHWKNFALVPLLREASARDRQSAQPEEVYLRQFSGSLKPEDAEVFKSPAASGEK
T1 sequence (Q9HBA0 whole entry): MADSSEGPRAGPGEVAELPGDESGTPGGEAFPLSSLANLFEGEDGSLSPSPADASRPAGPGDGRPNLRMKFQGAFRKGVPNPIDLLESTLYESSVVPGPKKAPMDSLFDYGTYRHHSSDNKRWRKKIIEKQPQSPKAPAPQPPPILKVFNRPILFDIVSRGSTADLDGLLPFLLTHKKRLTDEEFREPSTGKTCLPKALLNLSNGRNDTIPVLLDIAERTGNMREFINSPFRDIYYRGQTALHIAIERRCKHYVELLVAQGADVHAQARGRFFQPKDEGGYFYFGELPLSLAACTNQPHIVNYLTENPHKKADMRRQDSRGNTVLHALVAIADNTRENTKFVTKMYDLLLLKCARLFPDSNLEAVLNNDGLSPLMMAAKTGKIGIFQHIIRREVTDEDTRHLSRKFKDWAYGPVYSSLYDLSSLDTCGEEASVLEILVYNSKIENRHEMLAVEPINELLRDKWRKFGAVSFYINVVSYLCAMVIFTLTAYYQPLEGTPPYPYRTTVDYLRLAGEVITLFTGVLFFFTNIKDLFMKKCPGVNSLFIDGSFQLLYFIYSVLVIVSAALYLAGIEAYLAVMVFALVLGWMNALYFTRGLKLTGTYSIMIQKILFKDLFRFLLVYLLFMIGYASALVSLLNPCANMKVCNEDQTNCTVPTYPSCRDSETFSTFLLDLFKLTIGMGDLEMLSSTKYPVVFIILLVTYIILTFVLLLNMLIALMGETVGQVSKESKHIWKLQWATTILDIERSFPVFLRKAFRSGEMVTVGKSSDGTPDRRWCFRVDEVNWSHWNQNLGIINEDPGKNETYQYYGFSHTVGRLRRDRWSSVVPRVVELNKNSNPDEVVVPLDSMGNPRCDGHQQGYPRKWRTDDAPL

For the compound `COc1ccc(S(=O)(=O)N(Cc2cccnc2)[C@@H](C(=O)NO)C(C)C)cc1` [CGS-27023A, reference compound], the “block of IL-1-induced collagen degradation” value in [1] is “completely blocked”.
As for `CC(C)C[C@H](NC(=O)c1cc2ccccc2s1)C(=O)N[C@@H]1CCCN(S(=O)(=O)c2ccc(Cl)cc2)CC1=O` [Formula IIc, N-{(1S)-1-[({(4R)-1-[(4-chlorophenyl)sulfonyl]-3-oxohexahydro-1H-azepin-4-yl}amino)carbonyl]-3-methylbutyl}-1-benzothiophene-2-carboxamide], the “GAG release Mean ± SEM” value in [2] (0.01 μM, IL-1 100 ng/ml, 3 days) is recorded as 62 ± 4.82 μg/explant; in assay [2] (0.03 μM, IL-1 100 ng/ml, 3 days) it was 59 ± 4.62 μg/explant; in assay [2] (0.10 μM, IL-1 100 ng/ml, 3 days) it was 43 ± 3.18 μg/explant; in assay [2] (1.00 μM, IL-1 100 ng/ml, 3 days) it was 14 ± 1.44 μg/explant. Further, in [2] (Bos taurus, 72 h, 0.01 μM, IL-1 100 ng/ml, 3 days), the inhibition at 0.01 µM was -2%. In addition, in assay [2] (Bos taurus, 72 h, 0.03 μM, IL-1 100 ng/ml, 3 days), the inhibition at 0.03 µM was 4%. Also, the inhibition at 0.1 µM in [2] (Bos taurus, 72 h, 0.10 μM, IL-1 100 ng/ml, 3 days) turned out to be 38%. Also, the inhibition at 1 µM in assay [2] (Bos taurus, 72 h, 1.00 μM, IL-1 100 ng/ml, 3 days) amounted to 98%. The “inhibition of aggrecan degradation” value in assay [2] (IL-1 stimulation for 12 or 21 days) is on record as “Significant inhibition”.
On to `CCCCCCCCCCCCCC(=O)O[C@@H]1[C@@H](C)[C@@]2(O)[C@@H](C=C(CO)C[C@]3(O)C(=O)C(C)=C[C@@H]23)[C@@H]2C(C)(C)[C@]12OC(C)=O` [PMA, phorbol 12-myristate 13-acetate], for which, in [3], the “effect on intracellular calcium in wild type HEK293 cells” value was “without effect” and the pEC50 wild type entry is “IA”. The “Ca2+ influx” value in assay [4] is on record as “no change in Ca^2+ influx”. The “Ca2+ influx” value in assay [5] was “no change in Ca^2+ influx”. Also, in assay [6], the “Ca2+ influx” value is “no change in Ca^2+ influx”. In addition, in assay [7], the “intracellular calcium in HEK293-TRPV4 channel receptor cells” value is “increased intracellular calcium” and the “pEC50 TRPVR4” value is given as 6.64 ± 0.06. Moreover, in assay [8], the “activation of VR1” value is “activated VR1” and the “pEC50 TRPVR1” value is 7.86 ± 0.06. The “Emax at VR1” value in [8] (compared to capsaicin and RTX) came out at 0.46. Further, in [9], the “effect on intracellular calcium in cells transfected with empty vector” value is reported as “without effect” and the pEC50 empty vector entry was “IA”.
On to `C=C(C)[C@]12C[C@@H](C)[C@@]34O[C@](Cc5ccccc5)(O[C@@H]1[C@@H]3C=C(COC(=O)Cc1ccc(O)c(OC)c1)C[C@]1(O)C(=O)C(C)=C[C@@H]41)O2` [RTX], for which the pEC50 wild type result in [3] is “IA”. Besides, in assay [7], the “pEC50 TRPVR4” value is listed as “IA”. In addition, the “pEC50 TRPVR1” value in assay [8] stood at 8.93 ± 0.20. The pEC50 empty vector entry in [9] was “IA”.
As for `COc1cc(CNC(=O)CCCC/C=C/C(C)C)ccc1O` [capsaicin, reference compound], the pEC50 wild type result in [3] was “IA”. For the same compound, the “Ca2+ influx” value in assay [4], in [5] and in assay [6] was “no change in Ca^2+ influx” in each case. Besides, in assay [7], the “pEC50 TRPVR4” value is recorded as “IA”. In addition, in assay [9], the pEC50 empty vector entry is given as “IA”.
